Laboratory results taken from US12590072B2, “Thyromimetics” (Autobahn Therapeutics, Inc., priority 2020, dated 2026).

How the values were obtained:
[1] = target: T1, TRβ (TR-receptor hybrid with yeast Gal4 DBD) (Homo sapiens, UniProt P10828); experiment: Thyroid-hormone reporter-gene assay, TRβ; type: cell-based; settings: for EC50: HEK293-derived reporter cells, firefly luciferase, 24 hr incubation; for T3-SI, selectivity index EC50 (TRα)/EC50 (TRβ): calculated from the reporter-gene EC50 values
T1 construct: expressed in transfected cells; host or cells: HEK293
T1 sequence (P10828 217-461 limits assumed): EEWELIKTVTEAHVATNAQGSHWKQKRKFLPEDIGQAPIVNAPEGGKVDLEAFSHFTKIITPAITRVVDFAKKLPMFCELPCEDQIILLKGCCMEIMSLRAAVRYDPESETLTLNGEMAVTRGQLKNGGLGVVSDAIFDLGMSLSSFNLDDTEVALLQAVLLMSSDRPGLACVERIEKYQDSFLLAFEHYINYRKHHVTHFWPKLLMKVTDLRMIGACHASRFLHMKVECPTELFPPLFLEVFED
Protocol: (§1) Compounds were tested for thyroid-hormone receptor activity using TR reporter-gene assays. Reporter cells used in the assays express a TR-receptor hybrid (either TRα or TRβ) in which the native N-terminal DNA binding domain (DBD) has been replaced with that of the yeast Gal4 DBD. The reporter gene, firefly luciferase, is functionally linked to the Gal4 upstream activation sequence (UAS). Both cell lines were derived from human embryonic kidney (HEK293). • Step 1: A suspension of reporter cells was prepared in cell recovery medium containing 10% charcoal-stripped FBS, and dispensed into assay plates. […] These intermediate stocks were subsequently diluted directly into compound screening medium containing 10% charcoal-stripped FBS to generate “2×-concentration” treatment media (containing 0.2, 0.4 or 0.8% DMSO). • Step 3: At the end of the pre-incubation period, culture media were discarded from the assay plates, and all wells received 100 μl of compound screening medium. 100 μl of each of the previously prepared “2×-concentration” treatment media were dispensed into duplicate assay wells, thereby achieving the desired final treatment concentrations. The final concentration of DMSO in all assay wells was 0.1, 0.2 or 0.4%. Assay plates were incubated for 24 hr in a cell culture incubator (37° C./5% CO2/85% humidity). • Step 4: At the 24 h assay endpoint, treatment media were discarded and 100 μl/well of luciferase detection reagent was added. Relative luminometer units (RLUs) were quantified from each assay well.

[2] = target: T2, TRα (TR-receptor hybrid with yeast Gal4 DBD) (Homo sapiens, UniProt P10827); experiment: Thyroid-hormone reporter-gene assay, TRα; type: cell-based; settings: HEK293-derived reporter cells, firefly luciferase, 24 hr incubation
T2 construct: expressed in transfected cells; host or cells: HEK293
T2 sequence (P10827 1-410 isoform P10827-2): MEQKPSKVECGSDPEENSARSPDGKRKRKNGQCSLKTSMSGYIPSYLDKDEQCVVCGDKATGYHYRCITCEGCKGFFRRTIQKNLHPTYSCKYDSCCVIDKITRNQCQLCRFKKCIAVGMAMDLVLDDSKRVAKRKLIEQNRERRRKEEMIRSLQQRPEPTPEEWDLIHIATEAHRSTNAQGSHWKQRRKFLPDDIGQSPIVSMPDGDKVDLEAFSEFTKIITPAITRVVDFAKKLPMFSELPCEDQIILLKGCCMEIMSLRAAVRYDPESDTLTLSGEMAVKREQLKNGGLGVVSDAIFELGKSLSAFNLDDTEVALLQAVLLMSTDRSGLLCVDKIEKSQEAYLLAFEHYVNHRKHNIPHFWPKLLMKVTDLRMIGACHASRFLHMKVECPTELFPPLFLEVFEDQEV
Protocol: as §1

With CC(C)c1cc(Cc2c(Cl)cc(-n3nc(C#N)c(O)nc3=O)cc2Cl)ccc1O [Compound 1, 2-(3,5-dichloro-4-(4-hydroxy-3-isopropylbenzyl)phenyl)-5-hydroxy-3-oxo-2,3-dihydro-1,2,4-triazine-6-carbonitrile] the EC50 [1] was 10 to 100 nM, the “T3-SI, selectivity index EC50 (TRα)/EC50 (TRβ)” value (“T3-SI, selectivity index EC50” for short) [1] was “+++ (T3-SI>30×)” and the EC50 [2] was 100 to 1000 nM.
For CC(C)c1c(O)ccc(Cc2c(Cl)cc(-n3nc(C#N)c(O)nc3=O)cc2Cl)c1F [Compound 2, 2-(3,5-dichloro-4-(2-fluoro-4-hydroxy-3-isopropylbenzyl)phenyl)-5-hydroxy-3-oxo-2,3-dihydro-1,2,4-triazine-6-carbonitrile], the EC50 [1] was 10 to 100 nM, the “T3-SI, selectivity index EC50” value [1] was “++ (3×<T3-SI≤30×)” and the EC50 [2] was 10 to 100 nM.
In the case of N#Cc1nn(-c2cc(Cl)c(Cc3ccc(O)c(-c4cccc(OC(F)F)c4)c3)c(Cl)c2)c(=O)nc1O [Compound 3, 2-(3,5-dichloro-4-((3′-(difluoromethoxy)-6-hydroxy-[1,1′-biphenyl]-3-yl)methyl)phenyl)-5-hydroxy-3-oxo-2,3-dihydro-1,2,4-triazine-6-carbonitrile], the EC50 [1] is reported as 100 to 1000 nM, the “T3-SI, selectivity index EC50” value [1] is reported as “+++ (T3-SI>30×)” and the EC50 [2] is reported as > 1000 nM.
For N#Cc1nn(-c2cc(Cl)c(Cc3ccc(O)c(Cc4ccc(F)cc4)c3)c(Cl)c2)c(=O)nc1O [Compound 4, 2-(3,5-dichloro-4-(3-(4-fluorobenzyl)-4-hydroxybenzyl)phenyl)-5-hydroxy-3-oxo-2,3-dihydro-1,2,4-triazine-6-carbonitrile], the EC50 [1] was 100 to 1000 nM, the “T3-SI, selectivity index EC50” value [1] was “++ (3×<T3-SI≤30×)” and the EC50 [2] was > 1000 nM.
With CC(C)c1cc(Cc2c(Cl)cc(-n3nc(C#N)c(O)nc3=O)cc2C(C)C)ccc1O [Compound 5, 2-(3-chloro-4-(4-hydroxy-3-isopropylbenzyl)-5-isopropylphenyl)-5-hydroxy-3-oxo-2,3-dihydro-1,2,4-triazine-6-carbonitrile] the EC50 [1] was < 10 nM, the “T3-SI, selectivity index EC50” value [1] was “++ (3×<T3-SI≤30×)” and the EC50 [2] was 10 to 100 nM.
With CC(C)c1cc(Cc2c(Cl)cc(-n3nc(C#N)c(O)nc3=O)c(F)c2Cl)ccc1O [Compound 6, 2-(3,5-dichloro-2-fluoro-4-(4-hydroxy-3-isopropylbenzyl)phenyl)-5-hydroxy-3-oxo-2,3-dihydro-1,2,4-triazine-6-carbonitrile] the EC50 [1] was 100 to 1000 nM, the “T3-SI, selectivity index EC50” value [1] was “++ (3×<T3-SI≤30×)” and the EC50 [2] was 100 to 1000 nM.
CC(C)c1c(O)ccc(Cc2c(Cl)cc(-c3cc(F)c(O)c(F)c3)cc2Cl)c1F [Compound 7, 3′,5′-dichloro-3,5-difluoro-4′-(2-fluoro-4-hydroxy-3-isopropylbenzyl)-[1,1′-biphenyl]-4-ol] was tested, and the EC50 [1] was 100 to 1000 nM, the “T3-SI, selectivity index EC50” value [1] was “++ (3×<T3-SI≤30×)” and the EC50 [2] was > 1000 nM.
For CC(C)c1c(O)ccc(Cc2c(Cl)cc(-c3ccc(F)c(O)c3F)cc2Cl)c1F [Compound 8, 3′,5′-dichloro-2,4-difluoro-4′-(2-fluoro-4-hydroxy-3-isopropylbenzyl)-[1,1′-biphenyl]-3-ol], the EC50 [1] was > 1000 nM and the EC50 [2] was > 1000 nM.
CC(C)c1cc(Cc2c(Cl)cc(-c3cc(O)no3)cc2Cl)ccc1O [Compound 9, 5-(3,5-dichloro-4-(4-hydroxy-3-isopropylbenzyl)phenyl)isoxazol-3-ol] was tested, and the EC50 [1] was 10 to 100 nM, the “T3-SI, selectivity index EC50” value [1] was “++ (3×<T3-SI≤30×)” and the EC50 [2] was 100 to 1000 nM.
With O=c1nc(O)cnn1-c1cc(Cl)c(Cc2ccc(O)c(-c3cccc(OC(F)F)c3)c2)c(Cl)c1 [Compound 10, 2-(3,5-dichloro-4-((3′-(difluoromethoxy)-6-hydroxy-[1,1′-biphenyl]-3-yl)methyl)phenyl)-5-hydroxy-1,2,4-triazin-3(2H)-one] the EC50 [1] was < 10 nM, the “T3-SI, selectivity index EC50” value [1] was “++ (3×<T3-SI≤30×)” and the EC50 [2] was < 10 nM.
